Experimental data: PMC9916806, “Tachykinin Receptor-Selectivity of the Potential Glioblastoma-Targeted Therapy, DOTA-[Thi^8,Met(O2)^11]-Substance P” (International Journal of Molecular Sciences, 2023)
Each block holds one compound with its values, some of them ahead of it.

How the values were obtained:
NK3R [1] = target: T1, NK3R (Homo sapiens, UniProt P29371); assay: NK3R antagonism, IP accumulation assay; assay type: cell-based; conditions: 1 µM compound, 30 min pre-incubation at 37 °C, then 30 nM NKB 1 h; Figure 4; n = 4 (talnetant: two experiments)
T1 construct: host or cells: HEK293-T
T1 sequence (P29371 1-465): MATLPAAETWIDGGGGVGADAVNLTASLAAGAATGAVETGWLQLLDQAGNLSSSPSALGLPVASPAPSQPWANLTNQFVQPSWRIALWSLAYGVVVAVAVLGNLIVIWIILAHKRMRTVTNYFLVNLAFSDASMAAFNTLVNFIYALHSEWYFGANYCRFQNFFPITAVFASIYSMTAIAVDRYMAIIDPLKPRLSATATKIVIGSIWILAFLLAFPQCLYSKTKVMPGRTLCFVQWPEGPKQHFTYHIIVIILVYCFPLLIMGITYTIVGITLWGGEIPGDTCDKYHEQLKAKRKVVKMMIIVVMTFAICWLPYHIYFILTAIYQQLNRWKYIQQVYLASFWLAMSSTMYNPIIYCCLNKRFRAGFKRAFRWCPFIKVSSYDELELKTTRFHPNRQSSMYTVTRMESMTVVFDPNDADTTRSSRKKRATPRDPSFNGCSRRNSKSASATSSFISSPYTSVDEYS
Excerpt: (§1) pcDNA mammalian expression vectors encoding human NK3R (GenBank accession number: AY462098), NK2R (GenBank accession number: AY322545), NK1R (GenBank accession number: AY462099) and MRGPRX2 (GenBank accession number: NM_054030) were obtained from the Bloomsburg University cDNA Resource Center (www.cdna.org [accessed on 18 October 2018]). The NK1R, NK2R and NK3R vectors included an N-terminal 3xHA epitope tag. The empty vector, pcDNA3.1, was obtained from Thermo Fisher Scientific (Waltham, MA, USA). […] Talnetant was kindly supplied by Dr Mike Trower (NeRRe Therapeutics, Stevenage, UK).
Modified human embryonic kidney cells (HEK293-T; American Tissue and Cell Culture Collection), which provide a ‘blank’ background (with little/no endogenous tachykinin receptor nor MRGPRX2 expression) and stably express large T-antigen for optimal expression of exogenous proteins, were utilised. Cells were cultured in a humidified atmosphere at 37 °C with 5% CO2 in Dulbecco’s Modified Eagle Medium containing GlutaMAX™ (DMEM) (Life Technologies, Carlsbad, CA, USA) supplemented with 10% foetal calf serum (FCS) (Life Technologies, Carlsbad, CA, USA). Cells were passaged regularly to maintain them at less than 80% confluence. […]

NK3R [2] = test system: NK3R; design: method as in PMID 9190866; conditions: ref [49]; cited from earlier work
Procedure: For single-concentration analyses, cells were incubated with 1 µM [NK1R, NK2R, NK3R and empty vector) or 10 µM [MRGPRX2 and empty vector]

MRGPRX2 = conditions: ref [14]; cited from earlier work
Excerpt: Glioblastoma multiforme is one of the most common and most aggressive forms of central nervous system tumour and, despite therapeutic advances, it remains largely incurable. […] SP is a member of the tachykinin family of neuropeptides, of which the other classical members are neurokinin-A (NKA) and ...

NK3R [3] = target: T1, NK3R; assay: IP accumulation assay, NK3R activation (HEK293-T cells); assay type: cell-based; conditions: 1 µM SP; Supplemental Figure S3, % of cognate native ligand (NKB) response; single experiment (n=1); also ref [11]
Excerpt: as §1
(§2) Modified human embryonic kidney cells (HEK293-T; American Tissue and Cell Culture Collection), which provide a ‘blank’ background (with little/no endogenous tachykinin receptor nor MRGPRX2 expression) and stably express large T-antigen for optimal expression of exogenous proteins, were utilised. […]
(§3) The tachykinin receptors elicit intracellular signalling responses primarily through coupling to, and the activation of, Gαq/11 G proteins. […] These can be isolated using ion exchange chromatography and their radioactivity measured, with the amount of radiolabelled IP generated (i.e., the level of radioactivity measured) being proportional to the signalling activity of the receptor [48]. […]

[4] = test system: all three tachykinin receptors (NK1R, NK2R, NK3R); conditions: albeit with differing potencies; ref [11],[13]; cited from earlier work
NK1R [5] = conditions: native tachykinins; ref [11],[13]; cited from earlier work
[6] = design: method as in PMID 31480582; conditions: ref [19]; cited from earlier work
[7] = design: method as in PMID 31480582; conditions: ref [19]; cited from earlier work; remark: listed apart in the source
[8] = ref [29]; cited from earlier work
Excerpt: In glioblastoma multiforme NK1Rs are believed to be highly expressed on the tumour cells and also within the tumour neovasculature, conferring the ability to concurrently target vascular and neoplastic structures. […] However, its therapeutic effectiveness is fairly constra ...

NK1R [9] = target: T2, NK1R (Homo sapiens, UniProt P25103); assay: IP accumulation assay, NK1R activation (HEK293-T cells); assay type: cell-based; conditions: HEK293-T cells transfected with NK1R, 1 h at 37 °C, mean ± SEM (n = 3)
T2 construct: host or cells: HEK293-T
T2 sequence (P25103 whole entry): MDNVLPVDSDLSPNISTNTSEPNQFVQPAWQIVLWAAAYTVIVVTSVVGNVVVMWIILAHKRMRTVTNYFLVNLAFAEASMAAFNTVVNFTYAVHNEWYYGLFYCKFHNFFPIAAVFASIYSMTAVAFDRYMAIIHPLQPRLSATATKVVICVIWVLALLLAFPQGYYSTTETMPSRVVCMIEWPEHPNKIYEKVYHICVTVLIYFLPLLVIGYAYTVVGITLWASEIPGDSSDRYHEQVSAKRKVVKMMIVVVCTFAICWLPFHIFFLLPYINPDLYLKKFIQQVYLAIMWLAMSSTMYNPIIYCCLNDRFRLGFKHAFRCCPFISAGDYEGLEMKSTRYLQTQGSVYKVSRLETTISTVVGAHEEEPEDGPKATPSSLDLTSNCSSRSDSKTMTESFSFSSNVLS
Excerpt: as §1, §2, §3

Structure (SMILES): CC[C@H](NC(=O)c1c(O)c(-c2ccccc2)nc2ccccc12)c1ccccc1 [talnetant, (S)-N-(1-phenylpropyl)-3-hydroxy-2-phenylquinoline-4-carboxamide]
inhibition of NK3R activation (NK3R [1]): NKB-induced NK3R activation was completely abolished
NK3R antagonism (NK3R [2]): non-peptide antagonist of the NK3R

NK3R response to SP (NK3R [3]): able to elicit a response
Structure (SMILES): CSCC[C@H](NC(=O)[C@H](CC(C)C)NC(=O)CNC(=O)[C@H](Cc1ccccc1)NC(=O)[C@H](Cc1ccccc1)NC(=O)[C@H](CCC(N)=O)NC(=O)[C@H](CCC(N)=O)NC(=O)[C@@H]1CCCN1C(=O)[C@H](CCCCN)NC(=O)[C@@H]1CCCN1C(=O)[C@@H](N)CCCNC(=N)N)C(N)=O [SP, Substance P]
agonism at MRGPRX2 (MRGPRX2): low potency agonist
agonism at all three tachykinin receptors [4]: full agonists
affinity for NK1R (NK1R [5]): highest affinity for NK1R

Emax (NK1R [9]; HEK-293T, Table 2, % of the maximal response elicited by SP (Figure 3)): 89 ± 1%
EC50 (NK1R [9]; Table 2, comparison of SP with DOTA-[Thi8,Met(O2)11]SP): 3.31 nM
Structure (SMILES): CC(C)C[C@H](NC(=O)CNC(=O)[C@H](Cc1cccs1)NC(=O)[C@H](Cc1ccccc1)NC(=O)[C@H](CCC(N)=O)NC(=O)[C@H](CCC(N)=O)NC(=O)[C@@H]1CCCN1C(=O)[C@H](CCCCN)NC(=O)[C@@H]1CCCN1C(=O)[C@H](CCCNC(=N)N)NC(=O)CN1CCN(CC(=O)O)CCN(CC(=O)O)CCN(CC(=O)O)CC1)C(=O)N[C@@H](CCS(C)(=O)=O)C(N)=O [DOTA-[Thi^8,Met(O2)^11]SP, 1,4,7,10-tetraazacyclododecane-1,4,7,10-tetraacetic acid-[Thi^8,Met(O2)^11]-SP]
lipophilicity compared to native SP [6]: increased lipophilicity
in vivo half-life compared to native SP [7]: increased lipophilicity and in vivo half-life
metabolic stability [8]: metabolically stable
